{"source": "patent US11344498B2", "about": "“Compositions and methods for on-demand high-efficiency triggerable anesthesia” (priority 2015, dated 2022)", "key": {"[1]": {"description": "Animals were anesthetized with isoflurane-oxygen and injected with 50 μL of 10 mg/mL sulforhodamine B PBS solution at the sciatic nerve co-injected with or without 50 μL of 50 μg/mL DMED. […] The supernatant was collected and methanol was added at a 1:1 vol ratio. […] The concentration of sulforhodamine B was analyzed by fluorescence (excitation/emission: 560/580 nm).\nLiposomal pharmacokinetics studies were performed by co-injecting 200 μL of Lipo-PS-Srho with 200 μL of Lipo or Lipo-DMED at the sciatic nerve. At predetermined time points (30 min, 3 h, 7 h and 10 h), blood was harvested by tail-bleeding."}, "sciatic nerve": {"tested_on": "sciatic nerve", "assay": "Motor nerve block, weight-bearing test (TTX, ultrasound, microbubbles)", "details": "rat, in vivo"}, "[2]": {"tested_on": "sciatic nerves and adjacent tissues", "details": "rat, in vivo"}}, "note": "Where two headings read alike, the source gives them in different places."}
{"smiles": "Cc1cccc([C@H](C)c2cnc[nH]2)c1C", "note": "[DMED, (S)-4-[1-(2,3-Dimethylphenyl)ethyl]-3H-imidazole]", "values": [{"measurement": "decrease of peak Srho plasma concentration", "setting": "[1]; rat, in vivo", "value": 27.5, "unit": "%"}, {"measurement": "time to peak Srho plasma level", "setting": "[1]; rat, in vivo", "value": 60, "unit": "min"}]}
{"smiles": "CCN(CC)c1ccc2c(-c3ccc(S(=O)(=O)O)cc3S(=O)(=O)[O-])c3ccc(=[N+](CC)CC)cc-3oc2c1", "note": "[Srho, sulforhodamine B]", "values": [{"measurement": "time to peak Srho plasma level", "setting": "[1]; free Srho without DMED", "value": 30, "unit": "min"}]}
{"smiles": "N=C1N[C@@H](O)[C@H]2[C@@H]3OC4(O)OC(C(O)[C@@]2(N1)[C@@H]4O)[C@]3(O)CO", "note": "(stereo partly drawn) [TTX, Tetrodotoxin]", "values": [{"measurement": "median duration of motor nerve block", "setting": "sciatic nerve", "value": 0, "unit": "min"}, {"measurement": "inflammation score", "setting": "[2]", "value": 1}, {"measurement": "myotoxicity score", "setting": "[2]", "value": 0}]}
